Laboratory results published in patent publication US12252457B2, “Compositions and methods for reducing tactile dysfunction, anxiety, and social impairment” (President and Fellows of Harvard College, priority 2018, dated 2025).

Test system: large diameter neurons cultured from DRGs of Mecp2 and Shank3 mutant mice
Assay: Whole cell patch-clamp recordings of cultured DRG neurons
Assay type: cell-based, mouse
Conditions: 10 μM isoguvacine
Procedure: FIGS. 27A-27K are related to FIGS. 19A-19N. FIGS. 27A-27B: Representative traces from large diameter neurons cultured from DRGs of control (FIG. 27A) and Mecp2^STOP/y (FIG. 27B) mice during whole cell current clamp recordings, in which the minimal amount of current required to elicit an action potential in each neuron (rheobase, Rh), was determined in the absence or presence of 10 μm isoguvacine. FIG. 27C: Quantification of average Rh in large diameter neurons cultured from DRGs of control mice during a baseline period and then in presence of 10 μm isoguvacine. Repeated measures one-way ANOVA, post-hoc Tukey's test, *, p<0.05. FIG. 27D: Quantification of average Rh in large diameter neurons cultured from DRGs of control mice during a baseline period, followed application of 10 μm isoguvacine, then washout period. […] FIG. 27E: Quantification of average Rh in large diameter neurons cultured from DRGs of control and Mecp2^STOP/y mice during a baseline period and then in presence of 10 μm isoguvacine. […] FIG. 27F: Quantification of average Rh in large diameter neurons cultured from DRGs of control and Shank3B^+/− mice during a baseline period and then in presence of 10 μm isoguvacine. […] FIG. 27G: Quantification of total Ih density at each hyperpolarizing voltage step for large diameter neurons cultured from DRGs of control, Mecp2^STOP/y and Shank3B^+/− mutant mice. […]

O=C(O)C1=CCNCC1 [Isoguvacine, isoguvacine]
Ih (large diameter DRG neurons): without affecting Ih | hyperexcitability phenotype (rheobase) of large diameter DRG neurons (neurons from Mecp2 and Shank3 mutant mice): reduced the hyperexcitability phenotype
